# According to patent US4528289A, “Corynantheine derivates, processes for their preparation, and their use” (Dr. Willmar Schwabe GmbH & Co., priority 1982, dated 1985):
# Tests used:
# mice [1] = assay: sedating action on mice after oral administration; assay type: in vivo; conditions: 5 to 20 mg/kg, dosage-dependent
# [2] = system: aconitine-induced arrythmias; assay: protection against aconitine-induced arrhythmias in urethane-narcotised rats, i.v.; assay type: in vivo; conditions: 2 to 5 mg/kg (THCN)
# Source text: (§1) The antiarrhythmic effectiveness of DHCN and THCN was investigated on mice and rats.
# [3] = system: systolic blood pressure of spontaneously hypertonic rats; assay: regression analysis of the dosage-activity relationship (blood pressure lowering); assay type: in vivo, rat; conditions: compared with DHCN and ajmalicine
# Source text: (§2) The blood pressure-lowering action of the compound THCN according to the present invention and of DHCN was investigated on spontaneously hypertonic rats after oral administration and compared with that of ajmalicine. The method thereby used for the measurement of the systolic blood pressure and of the heart rate on rats is described in Arzneimittel-Forschung, 18, 1285-1287/1968. Before commencement of the experiments, the animals were familiarised with the measurement procedure.
# (§3) In a first series of experiments, the systolic blood pressure and the heart rate were investigated 2 hours after the oral administration of the test substances in the form of their hydrochlorides. The substances were suspended in 0.2% agar and administered in a volume of 10 ml./kg. It follows therefrom that all three substances lower the blood pressure in a dosage-dependent manner.
# The calculation of the regression lines gives, in all three cases, a statistically significant correlation between dosage and degree of blood pressure lowering (cf. the following Table 4). For ajmalicine, in the case of a dosage of 56 mg./kg., the lowering reached a maximum of about 18%, which could not be exceeded with dosages of up to 100 mg./kg.
# mice [4] = assay: acute toxicity, LD50 (Litchfield and Wilcoxon) on mice; assay type: in vivo; conditions: i.v., i.p. and oral LD50, mice
# Source text: (§4) The toxicity of the compounds according to the present invention can be seen from the LD50 values given in the following Table 8 for intravenous, intraperitoneal and oral administration.
# [5] = as above; assay type: in vivo; conditions: mouse, in vivo, mice
# Source text: as §4
# [6] = stability towards acids and other agents; assay type: physicochemical
# [7] = system: stereotypy brought about by apomorphine; assay: potentiation of apomorphine stereotypy in mice; assay type: in vivo; conditions: oral, 10 to 20 mg/kg
# mice [8] = assay: body temperature-lowering action on mice after oral administration; assay type: in vivo; conditions: 5 to 20 mg/kg, dosage-dependent
# [9] = system: systolic blood pressure of spontaneously hypertonic rats; assay: chronological course of blood pressure decrease in spontaneously hypertonic rats; assay type: in vivo, rat
# Source text: as §2
# (§5) In a further series of experiments, the chronological course of the blood pressure lowering was investigated. For this purpose, spontaneously hypertonic rats were treated with 10 mg./kg. DHCN and with 5 or 10 mg./kg. THCN per os and in each case 6 or 12 animals of the treated group were measured at definite times after the treatment.
# [10] = system: heart rate of spontaneously hypertonic rats; assay: chronological course of heart rate of spontaneously hypertonic rats; assay type: in vivo, rat; design: heart rate at time t: unit not given here
# Source text: as §2, §5
# CHCl3 arrhythmia = assay: inhibition of CHCl3 arrhythmia on mice, i.p.; assay type: in vivo
# Source text: as §1
# [11] = system: "head twitch" syndrome caused by 5-hydroxytryptophane; assay: inhibition of "head twitch" syndrome caused by 5-hydroxytryptophane on mice; assay type: in vivo; conditions: concluded from head twitch test
# [12] = system: heart rate of spontaneously hypertonic rats; assay: heart rate of spontaneously hypertonic rats after oral administration; assay type: in vivo, rat; conditions: 2 h, tetrahydrocorynantheine
# Source text: as §2, §3
# [13] = system: systolic blood pressure of spontaneously hypertonic rats; assay: systolic blood pressure of spontaneously hypertonic rats after oral administration; assay type: in vivo, rat; conditions: 2 h, tetrahydrocorynantheine
# Source text: as §2, §3
smiles,measurement,setting,value
"CC[C@H]1CN2CCc3c([nH]c4ccccc34)[C@@H]2C[C@@H]1C(COC)C(=O)OC (some centres unmarked) [THCN, tetrahydrocorynantheine]",sedating action (in words),mice [1],sedating
same,"antiarrhythmic effectiveness, aconitine-induced arrythmias (in words)",[2],protects against aconitine-induced arrythmias
same,dosage activity curve (in words),[3],steeper
same,strength of action (in words),[3]; higher dosages,stronger in higher dosages
same,toxicities compared (in words),mice [4],almost the same
same,LD50,[5]; ip,133 mg/kg
same,LD50,[5]; iv,14.1 mg/kg
same,LD50,[5]; po,283 mg/kg
same,stability compared with dihydrocorynantheine (in words),[6],substantially more stable than dihydrocorynantheine
same,stability towards acids and other agents (in words),[6],astonishingly stable towards acids and other agents
same,apomorphine stereotypy (in words),[7],potentiated the stereotypy
same,central dopaminergic-stimulating property (in words),[7],central dopaminergic-stimulating property
same,body temperature-lowering action (in words),mice [8],body temperature-lowering action
same,percentage decrease of blood pressure,"[9]; 5 mg/kg p.o., 10 min.",11.1%
same,percentage decrease of blood pressure,"[9]; 5 mg/kg p.o., 20 min.",13.8%
same,percentage decrease of blood pressure,"[9]; 5 mg/kg p.o., 40 min.",12.8%
same,percentage decrease of blood pressure,"[9]; 5 mg/kg p.o., 80 min.",13.8%
same,percentage decrease of blood pressure,"[9]; 5 mg/kg p.o., 2 h.",8.1%
same,percentage decrease of blood pressure,"[9]; 5 mg/kg p.o., 4 h.",-0.2%
same,percentage decrease of blood pressure,"[9]; 5 mg/kg p.o., 6 h.",4.0%
same,percentage decrease of blood pressure,"[9]; 10 mg/kg p.o., 10 min.",13.5%
same,percentage decrease of blood pressure,"[9]; 10 mg/kg p.o., 20 min.",29.3%
same,percentage decrease of blood pressure,"[9]; 10 mg/kg p.o., 40 min.",27.8%
same,percentage decrease of blood pressure,"[9]; 10 mg/kg p.o., 80 min.",23.0%
same,percentage decrease of blood pressure,"[9]; 10 mg/kg p.o., 2 h.",14.4%
same,percentage decrease of blood pressure,"[9]; 10 mg/kg p.o., 4 h.",14.0%
same,percentage decrease of blood pressure,"[9]; 10 mg/kg p.o., 6 h.",15.9%
same,blood pressure lowering action compared (in words),[9]; DHCN 10 mg/kg vs THCN 5 mg/kg p.o.,the same action
same,time of maximum blood pressure lowering,"[9]; DHCN 10 mg/kg, THCN 5 mg/kg p.o.",about 40 minutes
same,blood pressure after the maximum (in words),"[9]; DHCN 10 mg/kg, THCN 5 mg/kg p.o., after about 40 minutes",the blood pressure again increases to the initial value
same,blood pressure lowering action (in words),[9]; THCN 10 mg/kg p.o.,a stronger action
same,time of maximum blood pressure lowering,[9]; THCN 10 mg/kg p.o.,20 min
same,maximum blood pressure lowering,"[9]; THCN 10 mg/kg p.o., 20 minutes after administration",30%
same,blood pressure after 6 hours (in words),"[9]; THCN 10 mg/kg p.o., 6 hours",still distinctly below the initial value
same,blood pressure-lowering action compared with ajmalicine (in words),[9]; oral administration,clearly stronger and longer-lasting blood pressure-lowering action
same,heart rate at time t,"[10]; 5 mg/kg p.o., 10 min.",504
same,heart rate at time t,"[10]; 5 mg/kg p.o., 20 min.",492
same,heart rate at time t,"[10]; 5 mg/kg p.o., 40 min.",499
same,heart rate at time t,"[10]; 5 mg/kg p.o., 80 min.",503
same,heart rate at time t,"[10]; 5 mg/kg p.o., 2 h.",508
same,heart rate at time t,"[10]; 5 mg/kg p.o., 4 h.",502
same,heart rate at time t,"[10]; 5 mg/kg p.o., 6 h.",489
same,heart rate at time t,"[10]; 10 mg/kg p.o., 10 min.",519
same,heart rate at time t,"[10]; 10 mg/kg p.o., 20 min.",518
same,heart rate at time t,"[10]; 10 mg/kg p.o., 40 min.",499
same,heart rate at time t,"[10]; 10 mg/kg p.o., 80 min.",520
same,heart rate at time t,"[10]; 10 mg/kg p.o., 2 h.",519
same,heart rate at time t,"[10]; 10 mg/kg p.o., 4 h.",519
same,heart rate at time t,"[10]; 10 mg/kg p.o., 6 h.",503
same,heart rate change (in words),"[10]; DHCN 10 mg/kg, THCN 10 mg/kg, on the border of statistical significance",an increase is to be observed
same,heart rate change (in words),[10]; THCN 5 mg/kg,does not change
same,"antiarrhythmic effectiveness, chloroform arrythmias (in words)",CHCl3 arrhythmia,dosage-dependently inhibited the arrythmias caused by chloroform
same,inhibition in % of CHCl3 arrhythmia,CHCl3 arrhythmia; 10 mg/kg,10%
same,inhibition in % of CHCl3 arrhythmia,CHCl3 arrhythmia; 15 mg/kg,60%
same,inhibition in % of CHCl3 arrhythmia,CHCl3 arrhythmia; 25 mg/kg,90%
same,central antiserotoninergic action (in words),[11],central antiserotoninergic action
same,"heart rate, subsequent value",[12]; 5 mg/kg p.o.,508 ± 7 beats/min.
same,"heart rate, Δ",[12]; 5 mg/kg p.o.,6 ± 12 beats/min.
same,"heart rate, Δ %",[12]; 5 mg/kg p.o.,1.2 ± 7.1%
same,"heart rate, subsequent value",[12]; 10 mg/kg p.o.,519 ± 9 beats/min.
same,"heart rate, Δ",[12]; 10 mg/kg p.o.,21 ± 11 beats/min.
same,"heart rate, Δ %",[12]; 10 mg/kg p.o.,4.2 ± 3.3%
same,"heart rate, subsequent value",[12]; 18 mg/kg p.o.,495 ± 6 beats/min.
same,"heart rate, Δ",[12]; 18 mg/kg p.o.,13 ± 12 beats/min.
same,"heart rate, Δ %",[12]; 18 mg/kg p.o.,3.3 ± 2.8%
same,"heart rate, subsequent value",[12]; 30 mg/kg p.o.,493 ± 10 beats/min.
same,"heart rate, Δ",[12]; 30 mg/kg p.o.,22 ± 27 beats/min.
same,"heart rate, Δ %",[12]; 30 mg/kg p.o.,4.7 ± 6.6%
same,"heart rate, subsequent value",[12]; 40 mg/kg p.o.,472 ± 14 beats/min.
same,"heart rate, Δ",[12]; 40 mg/kg p.o.,-1 ± 29 beats/min.
same,"heart rate, Δ %",[12]; 40 mg/kg p.o.,1.0 ± 6.6%
same,"systolic blood pressure, subsequent value",[13]; 5 mg/kg p.o.,178 ± 4 mm Hg
same,"systolic blood pressure, Δ",[13]; 5 mg/kg p.o.,-15 ± 3 mm Hg
same,"systolic blood pressure, Δ %",[13]; 5 mg/kg p.o.,-7.7 ± 1.8%
same,"systolic blood pressure, subsequent value",[13]; 10 mg/kg p.o.,168 ± 5 mm Hg
same,"systolic blood pressure, Δ",[13]; 10 mg/kg p.o.,-28 ± 6 mm Hg
same,"systolic blood pressure, Δ %",[13]; 10 mg/kg p.o.,-14.3 ± 4.7%
same,"systolic blood pressure, subsequent value",[13]; 18 mg/kg p.o.,165 ± 13 mm Hg
same,"systolic blood pressure, Δ",[13]; 18 mg/kg p.o.,-33 ± 11 mm Hg
same,"systolic blood pressure, Δ %",[13]; 18 mg/kg p.o.,-16.5 ± 5.8%
same,"systolic blood pressure, subsequent value",[13]; 30 mg/kg p.o.,146 ± 5 mm Hg
same,"systolic blood pressure, Δ",[13]; 30 mg/kg p.o.,-43 ± 5 mm Hg
same,"systolic blood pressure, Δ %",[13]; 30 mg/kg p.o.,-21.9 ± 3.9%
same,"systolic blood pressure, subsequent value",[13]; 40 mg/kg p.o.,132 ± 9 mm Hg
same,"systolic blood pressure, Δ",[13]; 40 mg/kg p.o.,-74 ± 10 mm Hg
same,"systolic blood pressure, Δ %",[13]; 40 mg/kg p.o.,-35.7 ± 4.7%
